Where two headings read alike, the source gives them in different places.
Columns and labels:
Assay in all cases: KiNativ assay
Assay type in all cases: binding
IRE1 = IRE1 (Homo sapiens (Human), UniProt O75460); conditions: H929 live cell
Experimental: (§1) Biochemical IC50s of the compounds of the present disclosure against various kinases were measured in a KiNativ assay. Compounds were screened in duplicate at 10 μM in H929 live cell. IC50 was measured via Mass spectroscopy (MS).

MLK3 = MLK3 (Homo sapiens (Human), UniProt Q16584); conditions: H929 live cell
Experimental: as §1

CDK2 = CDK2 (Homo sapiens (Human), UniProt P24941); conditions: H929 live cell
Experimental: as §1

ILK = ILK (Homo sapiens (Human), UniProt Q13418); conditions: H929 live cell
Experimental: as §1

CHK2 = CHK2 (Homo sapiens (Human), UniProt O96017); conditions: H929 live cell
Experimental: as §1

IRAK4 = IRAK4 (Homo sapiens (Human), UniProt Q9NWZ3); conditions: H929 live cell
Experimental: as §1

RSK2 domain2 = RSK2 domain2 (Homo sapiens (Human), UniProt P51812); conditions: H929 live cell
Experimental: as §1

MAP3K2 = MAP3K2 (Homo sapiens (Human), UniProt Q9Y2U5); conditions: H929 live cell
Experimental: as §1

MARK1, MARK2 = conditions: H929 live cell
Experimental: as §1

NEK4 = NEK4 (Homo sapiens (Human), UniProt P51957); conditions: H929 live cell
Experimental: as §1

LKB1 = LKB1 (Homo sapiens (Human), UniProt Q15831); conditions: H929 live cell
Experimental: as §1

SLK = SLK (Homo sapiens (Human), UniProt Q9H2G2); conditions: H929 live cell
Experimental: as §1

CaMK1d = CaMK1d (Homo sapiens (Human), UniProt Q8IU85); conditions: H929 live cell
Experimental: as §1

PI4KB = PI4KB (Homo sapiens (Human), UniProt Q9UBF8); conditions: H929 live cell
Experimental: as §1

PKN1 = PKN1 (Homo sapiens (Human), UniProt Q16512); conditions: H929 live cell, read-out: inhibition (10 μM)
Experimental: as §1

KHS1 = KHS1 (Homo sapiens (Human), UniProt Q9Y4K4); conditions: H929 live cell
Experimental: as §1

CaMK2g = CaMK2g (Homo sapiens (Human), UniProt Q13555); conditions: H929 live cell
Experimental: as §1

STLK5 = STLK5 (Homo sapiens (Human), UniProt Q7RTN6); conditions: H929 live cell
Experimental: as §1

NEK1 = NEK1 (Homo sapiens (Human), UniProt Q96PY6); conditions: H929 live cell
Experimental: as §1

MAP3K5 = MAP3K5 (Homo sapiens (Human), UniProt Q99683); conditions: H929 live cell
Experimental: as §1

MAPKAPK2, MAPKAPK3 = conditions: H929 live cell
Experimental: as §1

[1] = test system: CaMK2a, CaMK2b, CaMK2d, CaMK2g; conditions: H929 live cell
Experimental: as §1

IKKb = IKKb (Homo sapiens (Human), UniProt O14920); conditions: H929 live cell
Experimental: as §1

JAK1 domain1 = JAK1 domain1 (Homo sapiens (Human), UniProt P23458); conditions: H929 live cell
Experimental: as §1

[2] = test system: ZC1/HGK, ZC2/TNIK, ZC3/MINK; conditions: H929 live cell
Experimental: as §1

PIP5K3 = PIP5K3 (Homo sapiens (Human), UniProt Q9Y2I7); conditions: H929 live cell
Experimental: as §1

ULK1 = ULK1 (Homo sapiens (Human), UniProt O75385); conditions: H929 live cell
Experimental: as §1

KSR1, KSR2 = conditions: H929 live cell
Experimental: as §1

MAP3K2, MAP3K3 = conditions: H929 live cell
Experimental: as §1

JAK1 domain2 = JAK1 domain2 (Homo sapiens (Human), UniProt P23458); conditions: H929 live cell
Experimental: as §1

BRAF = BRAF (Homo sapiens (Human), UniProt P15056); conditions: H929 live cell
Experimental: as §1

TAO2 = TAO2 (Homo sapiens (Human), UniProt Q9UL54); conditions: H929 live cell
Experimental: as §1

ABL, ARG = conditions: H929 live cell
Experimental: as §1

PKD2 = PKD2 (Homo sapiens (Human), UniProt Q9BZL6); conditions: H929 live cell
Experimental: as §1

[3] = range class, read-out: % inhibition

Chain of RSK2 domain2 (P51812 whole entry, the tested form may be a part): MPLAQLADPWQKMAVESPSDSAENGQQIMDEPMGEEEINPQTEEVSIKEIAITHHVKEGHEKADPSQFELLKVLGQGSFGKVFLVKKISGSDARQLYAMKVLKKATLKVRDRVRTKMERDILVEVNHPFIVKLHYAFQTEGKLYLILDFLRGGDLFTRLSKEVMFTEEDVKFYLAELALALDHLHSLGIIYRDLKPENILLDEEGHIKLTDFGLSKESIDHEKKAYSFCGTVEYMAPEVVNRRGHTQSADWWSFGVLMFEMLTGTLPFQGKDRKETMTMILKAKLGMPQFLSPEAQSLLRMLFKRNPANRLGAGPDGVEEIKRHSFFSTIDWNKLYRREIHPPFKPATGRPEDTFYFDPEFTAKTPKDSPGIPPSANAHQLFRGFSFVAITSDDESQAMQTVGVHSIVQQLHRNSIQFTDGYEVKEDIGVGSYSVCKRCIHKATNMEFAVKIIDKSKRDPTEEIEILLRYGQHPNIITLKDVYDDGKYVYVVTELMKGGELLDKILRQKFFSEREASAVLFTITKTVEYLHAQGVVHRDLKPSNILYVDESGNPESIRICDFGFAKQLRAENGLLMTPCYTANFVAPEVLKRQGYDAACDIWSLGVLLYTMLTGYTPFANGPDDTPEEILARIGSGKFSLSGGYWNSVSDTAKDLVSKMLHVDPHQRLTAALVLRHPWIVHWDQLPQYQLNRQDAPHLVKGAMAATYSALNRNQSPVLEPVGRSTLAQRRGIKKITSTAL
Chain of CHK2 (O96017 whole entry): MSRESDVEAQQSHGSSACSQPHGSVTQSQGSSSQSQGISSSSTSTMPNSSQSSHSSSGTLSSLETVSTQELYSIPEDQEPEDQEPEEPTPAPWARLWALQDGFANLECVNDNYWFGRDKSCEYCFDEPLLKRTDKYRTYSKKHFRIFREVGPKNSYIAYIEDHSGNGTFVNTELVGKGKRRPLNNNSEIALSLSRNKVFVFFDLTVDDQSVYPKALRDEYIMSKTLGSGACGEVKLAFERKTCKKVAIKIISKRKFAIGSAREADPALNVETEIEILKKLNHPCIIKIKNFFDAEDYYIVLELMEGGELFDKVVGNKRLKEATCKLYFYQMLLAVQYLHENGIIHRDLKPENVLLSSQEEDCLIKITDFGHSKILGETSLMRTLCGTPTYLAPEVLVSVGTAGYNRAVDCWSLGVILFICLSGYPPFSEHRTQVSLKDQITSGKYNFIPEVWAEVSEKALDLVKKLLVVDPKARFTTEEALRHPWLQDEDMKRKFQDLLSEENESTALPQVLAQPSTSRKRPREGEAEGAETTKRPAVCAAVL
Chain of IRE1 (O75460 19-977): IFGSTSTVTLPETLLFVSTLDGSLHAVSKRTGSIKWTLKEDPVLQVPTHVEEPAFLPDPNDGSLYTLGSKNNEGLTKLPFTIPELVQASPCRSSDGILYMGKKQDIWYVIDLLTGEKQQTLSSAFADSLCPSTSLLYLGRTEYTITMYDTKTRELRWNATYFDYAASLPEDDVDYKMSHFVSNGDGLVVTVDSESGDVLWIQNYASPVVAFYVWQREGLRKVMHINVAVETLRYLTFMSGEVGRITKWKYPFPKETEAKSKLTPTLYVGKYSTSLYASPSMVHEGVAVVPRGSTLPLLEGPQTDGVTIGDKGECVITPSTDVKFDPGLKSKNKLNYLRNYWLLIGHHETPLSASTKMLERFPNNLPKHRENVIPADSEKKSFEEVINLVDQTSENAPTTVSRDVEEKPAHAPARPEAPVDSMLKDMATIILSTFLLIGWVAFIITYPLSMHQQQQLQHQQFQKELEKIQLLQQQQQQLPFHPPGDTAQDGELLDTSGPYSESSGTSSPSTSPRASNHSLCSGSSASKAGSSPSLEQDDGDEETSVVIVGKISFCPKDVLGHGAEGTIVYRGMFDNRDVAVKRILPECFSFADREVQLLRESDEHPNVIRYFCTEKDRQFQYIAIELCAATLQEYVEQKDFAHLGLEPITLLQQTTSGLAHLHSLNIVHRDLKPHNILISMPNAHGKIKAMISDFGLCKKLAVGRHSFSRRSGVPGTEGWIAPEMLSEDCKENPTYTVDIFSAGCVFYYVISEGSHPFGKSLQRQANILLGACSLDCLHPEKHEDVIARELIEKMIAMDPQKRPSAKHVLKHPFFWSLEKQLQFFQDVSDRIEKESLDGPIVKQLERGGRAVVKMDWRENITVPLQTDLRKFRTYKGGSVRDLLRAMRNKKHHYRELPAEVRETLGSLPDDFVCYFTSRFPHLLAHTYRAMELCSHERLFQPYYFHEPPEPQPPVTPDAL
Chain of PI4KB (Q9UBF8 whole entry): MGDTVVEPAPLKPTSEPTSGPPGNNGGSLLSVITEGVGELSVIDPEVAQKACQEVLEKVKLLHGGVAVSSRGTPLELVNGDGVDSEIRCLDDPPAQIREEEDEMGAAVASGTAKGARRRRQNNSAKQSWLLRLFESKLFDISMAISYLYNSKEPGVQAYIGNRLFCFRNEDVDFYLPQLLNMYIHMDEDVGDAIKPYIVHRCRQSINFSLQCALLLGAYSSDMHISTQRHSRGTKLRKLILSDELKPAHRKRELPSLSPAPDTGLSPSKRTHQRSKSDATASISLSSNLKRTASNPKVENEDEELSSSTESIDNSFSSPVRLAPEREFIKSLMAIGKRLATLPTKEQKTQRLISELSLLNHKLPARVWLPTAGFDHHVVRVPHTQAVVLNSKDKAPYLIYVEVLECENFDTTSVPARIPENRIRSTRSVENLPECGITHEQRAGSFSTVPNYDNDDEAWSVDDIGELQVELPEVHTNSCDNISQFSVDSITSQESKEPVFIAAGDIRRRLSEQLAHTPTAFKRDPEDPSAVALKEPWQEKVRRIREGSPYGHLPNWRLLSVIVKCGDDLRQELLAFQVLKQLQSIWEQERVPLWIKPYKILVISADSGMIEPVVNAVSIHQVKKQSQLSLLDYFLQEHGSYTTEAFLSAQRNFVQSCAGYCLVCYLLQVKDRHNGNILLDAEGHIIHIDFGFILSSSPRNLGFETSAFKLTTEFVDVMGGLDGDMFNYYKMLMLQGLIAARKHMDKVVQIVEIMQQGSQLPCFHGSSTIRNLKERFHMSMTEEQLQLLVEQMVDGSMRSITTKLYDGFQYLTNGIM
Chain of IRAK4 (Q9NWZ3 whole entry): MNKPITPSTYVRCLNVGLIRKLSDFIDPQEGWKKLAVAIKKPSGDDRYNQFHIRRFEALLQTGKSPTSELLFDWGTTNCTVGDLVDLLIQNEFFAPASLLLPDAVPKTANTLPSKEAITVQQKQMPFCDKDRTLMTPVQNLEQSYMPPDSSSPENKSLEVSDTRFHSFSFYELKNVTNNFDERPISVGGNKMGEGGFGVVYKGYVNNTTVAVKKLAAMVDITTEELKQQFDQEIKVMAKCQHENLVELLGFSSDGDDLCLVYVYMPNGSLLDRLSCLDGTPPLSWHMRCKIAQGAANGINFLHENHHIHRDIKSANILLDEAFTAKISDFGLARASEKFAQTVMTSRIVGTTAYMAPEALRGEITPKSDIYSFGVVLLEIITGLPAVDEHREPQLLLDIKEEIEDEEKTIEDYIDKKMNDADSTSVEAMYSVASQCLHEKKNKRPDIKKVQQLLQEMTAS
Chain of TAO2 (Q9UL54 whole entry): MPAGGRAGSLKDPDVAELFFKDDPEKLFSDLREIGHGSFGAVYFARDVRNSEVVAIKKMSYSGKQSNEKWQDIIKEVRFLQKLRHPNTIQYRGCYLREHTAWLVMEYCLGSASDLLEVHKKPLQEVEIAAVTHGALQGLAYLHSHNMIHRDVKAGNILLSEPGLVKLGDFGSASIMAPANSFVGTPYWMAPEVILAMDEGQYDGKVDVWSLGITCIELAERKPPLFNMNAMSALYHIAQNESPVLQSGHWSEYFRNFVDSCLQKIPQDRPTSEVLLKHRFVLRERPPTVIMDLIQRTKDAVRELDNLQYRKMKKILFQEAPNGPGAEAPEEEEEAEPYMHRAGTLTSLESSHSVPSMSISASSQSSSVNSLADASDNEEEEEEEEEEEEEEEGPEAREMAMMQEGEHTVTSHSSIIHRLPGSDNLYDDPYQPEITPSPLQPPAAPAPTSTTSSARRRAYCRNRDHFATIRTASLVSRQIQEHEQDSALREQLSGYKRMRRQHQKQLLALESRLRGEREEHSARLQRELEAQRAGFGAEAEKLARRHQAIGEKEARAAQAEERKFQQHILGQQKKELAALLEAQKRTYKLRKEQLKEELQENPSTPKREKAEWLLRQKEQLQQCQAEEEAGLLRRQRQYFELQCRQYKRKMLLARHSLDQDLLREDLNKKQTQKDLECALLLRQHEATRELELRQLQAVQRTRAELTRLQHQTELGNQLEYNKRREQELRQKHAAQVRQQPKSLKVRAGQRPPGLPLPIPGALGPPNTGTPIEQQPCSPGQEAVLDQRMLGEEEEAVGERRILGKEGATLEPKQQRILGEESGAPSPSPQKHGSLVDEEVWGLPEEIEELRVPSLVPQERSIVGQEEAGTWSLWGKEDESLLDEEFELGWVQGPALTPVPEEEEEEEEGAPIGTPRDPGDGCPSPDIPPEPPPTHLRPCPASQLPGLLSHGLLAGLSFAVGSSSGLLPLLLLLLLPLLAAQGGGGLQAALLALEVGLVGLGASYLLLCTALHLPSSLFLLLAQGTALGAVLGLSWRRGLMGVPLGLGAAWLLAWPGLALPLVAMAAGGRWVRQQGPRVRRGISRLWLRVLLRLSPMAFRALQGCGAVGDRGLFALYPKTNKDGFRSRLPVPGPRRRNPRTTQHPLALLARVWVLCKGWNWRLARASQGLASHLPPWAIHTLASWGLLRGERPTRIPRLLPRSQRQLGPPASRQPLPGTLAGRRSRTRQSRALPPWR

Nc1ncc(-c2ccc(NS(=O)(=O)C3CC3)cc2OC2CCCCC2)cc1-c1ccc2c(c1)CCNC2=O [Compound I-65, N-(4-(6-amino-5-(1-oxo-1,2,3,4-tetrahydroisoquinolin-6-yl)pyridin-3-yl)-3-(cyclohexyloxy)phenyl) cyclopropanesulfonamide]
inhibition at 10 µM (IRE1; [3]): 0% | inhibition at 10 µM (IRE1; read-out: inhibition (10 μM)): -6.3% | inhibition at 10 µM (MLK3; [3]): 75 to 90% | inhibition at 10 µM (MLK3; read-out: inhibition (10 μM)): 82.7% | inhibition at 10 µM (CDK2; [3]): 0% | inhibition at 10 µM (CDK2; read-out: inhibition (10 μM)): 21.6% | inhibition at 10 µM (ILK; [3]): 0% | inhibition at 10 µM (ILK; read-out: inhibition (10 μM)): -35% | inhibition at 10 µM (CHK2; [3]): 0% | inhibition at 10 µM (CHK2; read-out: inhibition (10 μM)): 11.2% | inhibition at 10 µM (IRAK4; [3]): 0% | inhibition at 10 µM (IRAK4; read-out: inhibition (10 μM)): 32.9% | inhibition at 10 µM (RSK2 domain2; [3]): 0% | inhibition at 10 µM (RSK2 domain2; read-out: inhibition (10 μM)): 7.2% | inhibition at 10 µM (MAP3K2; [3]): 0% | inhibition at 10 µM (MAP3K2; read-out: inhibition (10 μM)): -3.9% | % inhibition (MARK1, MARK2; 10 μM, range class): 0.0% | inhibition (10 μM) (MARK1, MARK2): −29.4% | inhibition at 10 µM (NEK4; [3]): 0% | inhibition at 10 µM (NEK4; read-out: inhibition (10 μM)): 23.7% | inhibition at 10 µM (LKB1; [3]): 0% | inhibition at 10 µM (LKB1; read-out: inhibition (10 μM)): 27.4% | inhibition at 10 µM (SLK; [3]): > 90% | inhibition at 10 µM (SLK; read-out: inhibition (10 μM)): 97.8% | inhibition at 10 µM (CaMK1d; [3]): 0% | inhibition at 10 µM (CaMK1d; read-out: inhibition (10 μM)): 0.4% | inhibition at 10 µM (PI4KB; [3]): 0% | inhibition at 10 µM (PI4KB; read-out: inhibition (10 μM)): 8.6% | inhibition at 10 µM (PKN1): 35.9% | inhibition at 10 µM (KHS1; [3]): 50 to 75% | inhibition at 10 µM (KHS1; read-out: inhibition (10 μM)): 73.3% | inhibition at 10 µM (CaMK2g; [3]): 0% | inhibition at 10 µM (CaMK2g; read-out: inhibition (10 μM)): -12% | inhibition at 10 µM (STLK5; [3]): 0% | inhibition at 10 µM (STLK5; read-out: inhibition (10 μM)): -38.6% | inhibition at 10 µM (NEK1; [3]): 0% | inhibition at 10 µM (NEK1; read-out: inhibition (10 μM)): 9.3% | inhibition at 10 µM (MAP3K5; [3]): 0% | inhibition at 10 µM (MAP3K5; read-out: inhibition (10 μM)): -12.4% | % inhibition (MAPKAPK2, MAPKAPK3; 10 μM, range class): 0.0% | inhibition (10 μM) (MAPKAPK2, MAPKAPK3): −52.2% | % inhibition ([1]; 10 μM, range class): 0.0% | inhibition (10 μM) [1]: 12.8% | inhibition at 10 µM (IKKb; [3]): 0% | inhibition at 10 µM (IKKb; read-out: inhibition (10 μM)): -36% | inhibition at 10 µM (JAK1 domain1; [3]): 0% | inhibition at 10 µM (JAK1 domain1; read-out: inhibition (10 μM)): 2.1% | % inhibition ([2]; 10 μM, range class): >90% | inhibition (10 μM) [2]: 96.6% | inhibition at 10 µM (PIP5K3; [3]): > 90% | inhibition at 10 µM (PIP5K3; read-out: inhibition (10 μM)): 91.7% | inhibition at 10 µM (ULK1; [3]): 0% | inhibition at 10 µM (ULK1; read-out: inhibition (10 μM)): 22.2% | % inhibition (KSR1, KSR2; 10 μM, range class): 0.0% | inhibition (10 μM) (KSR1, KSR2): −5.7% | % inhibition (MAP3K2, MAP3K3; 10 μM, range class): 0.0% | inhibition (10 μM) (MAP3K2, MAP3K3): 23.3% | inhibition at 10 µM (JAK1 domain2; [3]): 0% | inhibition at 10 µM (JAK1 domain2; read-out: inhibition (10 μM)): 10.1% | inhibition at 10 µM (BRAF; [3]): 0% | inhibition at 10 µM (BRAF; read-out: inhibition (10 μM)): -41.5% | inhibition at 10 µM (TAO2; [3]): 0% | inhibition at 10 µM (TAO2; read-out: inhibition (10 μM)): 8.3% | % inhibition (ABL, ARG; 10 μM, range class): 0.0% | inhibition (10 μM) (ABL, ARG): −2.8% | inhibition at 10 µM (PKD2; [3]): 0% | inhibition at 10 µM (PKD2; read-out: inhibition (10 μM)): -33.4%

Reference: patent US10710978B2, “STK4 inhibitors for treatment of hematologic malignancies” (Dana-Farber Cancer Institute, Inc., priority 2015, dated 2020)
